Assays:
[1] = test system: Venular endothelial cells, peripheral blood mononuclear cells; assay: BioMAP Diversity PLUS SAg system (T cell stimulation, Th1 type chronic inflammation); assay type: cell-based, human
Method: (§1) This study examined activities of small molecules discovered in dolphin serum that had protective profiles against diseases of aging which can impact quality of life and longevity. These molecules were tested across 12 human primary cell-based systems as part of DiscoverX's BioMAP Diversity Plus program. These systems are designed to model complex human tissue and disease biology of the vasculature, skin, lung, and inflammatory tissues. Quantitative measurements of biomarker activities across this broad panel, along with comparative analysis of biological activities of known bioactive agents were used to predict and compare the efficacy and function of the four compounds. Compounds were tested at four concentrations (740 nm and 2.2, 6.7 and 20 μM).
(§2) BioMAP panels consist of human primary cell-based systems designed to model different aspects of the human body in an in vitro format. The 12 systems in the Diversity PLUS panel allow test agent characterization in an unbiased way across a broad set of systems modeling various human disease states. BioMAP systems are constructed with one or more primary cell types from healthy human donors, with stimuli (such as cytokines or growth factors) added to capture relevant signaling networks that naturally occur in human tissue or pathological conditions. Vascular biology is modeled in both a Th1 (3C system) and a Th2 (4H system) inflammatory environment, as well as in a Th1 inflammatory state specific to arterial smooth muscle cells (CASM3C system). Additional systems recapitulate aspects of the systemic immune response including monocyte-driven Th1 inflammation (LPS system) or T cell stimulation (SAg system), chronic Th1 inflammation driven by macrophage activation (lMphg system) and the T cell-dependent activation of B cells that occurs in germinal centers (BT system). The BE3C system (Th1) and the BF4T system (Th2) represent airway inflammation of the lung, while the MyoF system models myofibroblast-lung tissue remodeling. Lastly, skin biology is addressed in the KF3CT system modeling Th1 cutaneous inflammation and the HDF3CGF system modeling wound healing.
(§3) Each test agent generates a signature BioMAP profile that is created from the changes in protein biomarker readouts within individual system environments. Biomarker readouts (7-17 per system) are selected for therapeutic and biological relevance, are predictive for disease outcomes or specific drug effects and are validated using agents with known mechanism of action (MoA). Each readout is measured quantitatively by immune-based methods that detect protein (e.g., ELISA) or functional assays that measure proliferation and viability. BioMAP readouts are diverse and include cell surface receptors, cytokines, chemokines, matrix molecules and enzymes. In total, the Diversity PLUS panel contains 148 biomarker readouts that capture biological changes that occur within the physiological context of the particular BioMAP system. Specific BioMAP activities have been correlated to in vivo biology, and multiparameter BioMAP profiles have been used to distinguish compounds based on MoA and target selectivity across diverse physiological systems.
(§4) The Diversity PLUS panel allows test agent characterization in an unbiased way across a broad set of systems modeling various human disease states. These systems are designed to model complex human tissue and disease biology of the vasculature, skin, lung, and inflammatory tissues. Quantitative measurements of 148 biomarker activities across this broad panel, along with comparative analysis of biological activities from known bioactive agents, were used to predict and compare the efficacy and function of each selected compound at four concentrations (740 nm and 2.2, 6.7 and 20 μM). […]

[2] = test system: Peripheral blood mononuclear cells, B cells; assay: BioMAP Diversity PLUS BT system (T cell dependent B cell activation); assay type: cell-based, human; conditions: BT system
Method: as §1, §2
(§5) Each test agent generates a signature BioMAP profile that is created from the changes in protein biomarker readouts within individual system environments. Biomarker readouts (7-17 per system) are selected for therapeutic and biological relevance, are predictive for disease outcomes or specific drug effects and are validated using agents with known mechanism of action (MoA). Each readout is measured quantitatively by immune-based methods that detect protein (e.g., ELISA) or functional assays that measure proliferation and viability. BioMAP readouts are diverse and include cell surface receptors, cytokines, chemokines, matrix molecules and enzymes.
(§6) The Diversity PLUS panel allows test agent characterization in an unbiased way across a broad set of systems modeling various human disease states. These systems are designed to model complex human tissue and disease biology of the vasculature, skin, lung, and inflammatory tissues.
(§7) BioMAP systems are constructed with one or more primary cell types from healthy human donors, with stimuli (such as cytokines or growth factors) added to capture relevant signaling networks that naturally occur in human tissue or pathological conditions. Vascular biology is modeled in both a Th1 (3C system) and a Th2 (4H system) inflammatory environment, as well as in a Th1 inflammatory state specific to arterial smooth muscle cells (CASM3C system). Additional systems recapitulate aspects of the systemic immune response including monocyte-driven Th1 inflammation (LPS system) or T cell stimulation (SAg system), chronic Th1 inflammation driven by macrophage activation (lMphg system) and the T cell-dependent activation of B cells that occurs in germinal centers (BT system).

Dermal fibroblasts = assay: BioMAP Diversity PLUS HDF3CGF system (wound healing and matrix/tissue remodeling); assay type: cell-based, human
Method: as §1, §2, §5, §6, §7

[3] = white powder; room temperature; cited from earlier work
[4] = test system: Venular endothelial cells; assay: BioMAP Diversity PLUS 4H system (Th2 type vascular inflammation); assay type: cell-based, human; conditions: 6.7 μM
Method: as §1, with “Compounds were tested at four concentrations (740 nm and 2.2, 6.7 and 20 μM).” left out
as §5, with “enzymes. […]” for “enzymes.”

[5] = test system: Bronchial epithelial cells; assay: BioMAP Diversity PLUS BE3C system (Th1 type lung inflammation); assay type: cell-based, human
Method: as §1, §2, §3, §4

[6] = test system: Keratinocytes, dermal fibroblasts; assay: BioMAP Diversity PLUS KF3CT system (Th1 type cutaneous inflammation); assay type: cell-based, human
Method: as §1
BioMAP panels consist of human primary cell-based systems designed to model different aspects of the human body in an in vitro format. The 12 systems in the Diversity PLUS panel allow test agent characterization in an unbiased way across a broad set of systems modeling various human disease states. […]
as §5, with “enzymes. In total, the Diversity PLUS panel contains 148 biomarker readouts that capture biological changes that occur within the physiological context of the particular BioMAP system. […]” for “enzymes.”

Lung fibroblasts = assay: BioMAP Diversity PLUS MyoF system (myofibroblast differentiation and tissue remodeling); assay type: cell-based, human
Method: as §1, §2, §3, §4

[7] = test system: Macrophages, venular endothelial cells; assay: BioMAP Diversity PLUS lMphg system (Th1 type chronic inflammation, macrophage activation); assay type: cell-based, human; conditions: /Mphg system
Method: as §1, §2, §3, §4

Compound: N[C@@H](CC(O)C(=O)O)C(=O)O (some centres unmarked) [4-hydroxyglutamate]
- Significant log10 reduction compared to nontreated controls: T cell proliferation ([1]; SAg system, 0.7 μM): −0.08 log10
- Significant log10 reduction compared to nontreated controls: T cell proliferation ([1]; SAg system, 2.2 μM): −0.09 log10
- Significant log10 reduction compared to nontreated controls: T cell proliferation ([1]; SAg system, 6.7 μM): −0.18 log10
- T cell proliferation ([1]; human cell system mimicking T-cell driven chronic inflammation and autoimmune diseases, concentrations ranging from 740 nm to 6.7 μM (FIG. 2)): decreased
- Significant log10 reduction compared to nontreated controls: Secreted interleukin 17F (IL-17F) ([2]; 0.7 μM): −0.16 log10
- decorin (Dermal fibroblasts; human cell system mimicking wound healing, remodeling, fibrosis and chronic inflammation (FIG. 7)): inhibitory activity
- stability of the pure or purified metabolite [3]: stable at room temperature

Compound: CCCCCCCCCCCCCCC(=O)O[C@H](CC(=O)[O-])C[N+](C)(C)C [Pentadecanoylcarnitine (C15), pentadecanoylcarnitine]
- Significant log10 reduction compared to nontreated controls: Vascular endothelial growth factor s (VEGFR2) [4]: −0.11 log10
- Significant log10 reduction compared to nontreated controls: E-selectin ([1]; SAg system, 6.7 μM): −0.11 log10
- Significant log10 reduction compared to nontreated controls: T cell proliferation ([1]; SAg system, 6.7 μM): −0.17 log10
- Significant log10 reduction compared to nontreated controls: Secreted interleukin 2 (IL-2) ([2]; 2.2 μM): −0.11 log10
- Significant log10 reduction compared to nontreated controls: Secreted interleukin 6 (IL-6) ([2]; 6.7 μM): −0.13 log10
- Significant log10 reduction compared to nontreated controls: Tumor necrosis factor alpha (TNFα) ([2]; 6.7 μM): −0.10 log10
- Significant log10 reduction compared to nontreated controls: Interferon-inducible T cell alpha chemoattractant (I-TAC)/CXCL11 ([5]; 0.7 μM): −0.13 log10
- Significant log10 reduction compared to nontreated controls: Interleukin 1 alpha (IL-1α) ([5]; 0.7 μM): −0.06 log10
- Significant log10 reduction compared to nontreated controls: Interferon-inducible T cell alpha chemoattractant (I-TAC)/CXCL11 ([5]; 2.2 μM): −0.17 log10
- Significant log10 reduction compared to nontreated controls: Interleukin 1 alpha (IL-1α) ([5]; 2.2 μM): −0.06 log10
- Significant log10 reduction compared to nontreated controls: Matrix metalloproteinase 1 (MMP-1) ([5]; 2.2 μM): −0.05 log10
- Significant log10 reduction compared to nontreated controls: Matrix metalloproteinase 9 (MMP-9) ([5]; 2.2 μM): −0.08 log10
- Significant log10 reduction compared to nontreated controls: Plasminogen activation inhibitor 1 (PAI-1) ([5]; 2.2 μM): −0.08 log10
- Significant log10 reduction compared to nontreated controls: Tissue plasminogen activator (tPA) ([5]; 2.2 μM): −0.11 log10
- Significant log10 reduction compared to nontreated controls: Human leukocyte antigen-DR isotype (HLA-DR) ([5]; 6.7 μM): −0.63 log10
- Significant log10 reduction compared to nontreated controls: Interferon gamma-induced protein 10 (IP-10)/CXCL10 ([5]; 6.7 μM): −0.1 log10
- Significant log10 reduction compared to nontreated controls: Interferon-inducible T cell alpha chemoattractant (I-TAC)/CXCL11 ([5]; 6.7 μM): −0.54 log10
- Significant log10 reduction compared to nontreated controls: Interleukin 1 alpha (IL-1α) ([5]; 6.7 μM): −0.19 log10
- Significant log10 reduction compared to nontreated controls: Interleukin 8 (IL-8)/CXCL8 ([5]; 6.7 μM): −0.21 log10
- Significant log10 reduction compared to nontreated controls: Matrix metalloproteinase 1 (MMP-1) ([5]; 6.7 μM): −0.27 log10
- Significant log10 reduction compared to nontreated controls: Matrix metalloproteinase 9 (MMP-9) ([5]; 6.7 μM): −0.34 log10
- Significant log10 reduction compared to nontreated controls: Monokine induced by gamma interferon (MIG)/CXCL9 ([5]; 6.7 μM): −0.60 log10
- Significant log10 reduction compared to nontreated controls: Plasminogen activation inhibitor 1 (PAI-1) ([5]; 6.7 μM): −0.24 log10
- Significant log10 reduction compared to nontreated controls: Tissue plasminogen activator (tPA) ([5]; 6.7 μM): −0.43 log10
- Significant log10 reduction compared to nontreated controls: Matrix metalloproteinase 1 (MMP-1) (Dermal fibroblasts; HDF3CGF system, 6.7 μM): −0.12 log10
- Significant log10 reduction compared to nontreated controls: Interferon gamma-induced protein 10 (IP-10)/CXCL10 ([6]; 0.7 μM): −0.14 log10
- Significant log10 reduction compared to nontreated controls: Interferon gamma-induced protein 10 (IP-10)/CXCL10 ([6]; 2.2 μM): −0.09 log10
- Significant log10 reduction compared to nontreated controls: Interferon gamma-induced protein 10 (IP-10)/CXCL10 ([6]; 6.7 μM): −0.10 log10
- Significant log10 reduction compared to nontreated controls: Alpha smooth muscle actin (αSMA) (Lung fibroblasts; 0.7 μM): −0.16 log10
- Significant log10 reduction compared to nontreated controls: Alpha smooth muscle actin (αSMA) (Lung fibroblasts; 2.2 μM): −0.18 log10
- Significant log10 reduction compared to nontreated controls: Alpha smooth muscle actin (αSMA) (Lung fibroblasts; 6.7 μM): −0.26 log10
- Significant log10 reduction compared to nontreated controls: Monocyte chemoattractant protein 1 (MCP-1) ([7]; 2.2 μM): −0.17 log10
- Significant log10 reduction compared to nontreated controls: Monocyte chemoattractant protein 1 (MCP-1) ([7]; 6.7 μM): −0.25 log10
- Significant log10 reduction compared to nontreated controls: Secreted interleukin 10 (IL-10) ([7]; 6.7 μM): −0.13 log10

— patent US11992473B2, “Compositions and methods for diagnosis and treatment of conditions related to the quality of aging and longevity” (Epitracker, Inc., priority 2018, dated 2024)
